Source: article PMC7897990, “TriTOX: A novel Trichomonas vaginalis assay platform for high-throughput screening of compound libraries” (International Journal for Parasitology: Drugs and Drug …, 2021)
Like-named read-outs stand apart in the source and are kept apart here.

Columns and labels:
[1] = test system: Trichomonas vaginalis G3 trophozoites; test: microbe, parasite or virus in culture; conditions: 48 h
[2] = test system: Trichomonas vaginalis G3 trophozoites; conditions: for T.vaginalis_Absorbance_Rep1: replicate 1, raw absorbance; for T.vaginalis_Absorbance_Rep2: replicate 2, raw absorbance
[3] = test system: nontumorigenic neonatal foreskin fibroblast (NFF) cell line; conditions: NFF_NS1 screen at 5 µg/mL
T. vaginalis = test: Medium-throughput (MTS) confirmatory dose-response growth assay, T. vaginalis; type: cell-based, Trichomonas vaginalis; conditions: for activity against T. vaginalis in MTS, in words: 10-point dilution series, 96-well; for activity against T. vaginalis in MTS, in words / IC50: 48 h; for IC50: 96-well, 10,000 cells/mL in 50 μL, mean ± SEM, >10 = no appreciable activity at highest dose
Protocol: (§1) For microtiter plate assays, trichomonads were grown in anaerobic conditions within GasPak EZ anaerobe pouches with fresh anaerobic sachets. Working reagent of the chromogen was phenol red (Sigma) in a 1% w/v working solution in phosphate buffered saline (PBS), which was filter sterilised. Chromogen absorbance was monitored at 570 nm on an absorbance microplate reader after plates were allowed to equilibrate in atmospheric conditions at room temperature for at least 5 min.
(§2) After absorbances were measured, data were processed as followed unless indicated otherwise in the text. […] Prism 8 (GraphPad) was used to plot dose-response curves and calculate IC50 values, using a least squares regression, log[inhibitor] vs normalised response (variable slope, four parameters) model. Where replicate plates were used, data for dose-response curves were plotted as the mean±SD of these replicates.
(§3) A selection of 17 compounds assayed in the high-throughput screen (HTS) for T. vaginalis which were available through BioAustralis were obtained for validation of inhibitory in/activity in our optimised medium-throughput format. For this, a 10-point serial dilution was used for drug-susceptibility testing to calculate IC50 values of ‘hit’ compounds. Mtz was used as a positive control. Each screen was performed with 3 technical replicates and a minimum of 2 biological replicates in both T. vaginalis and T. foetus using assay conditions of seeds of 10,000 cells/mL in 50 μL, with absorbance measured at 48 h. Dose response curves and IC50 were calculated for each compound as described above in Section 2.3.

T. foetus = test: Medium-throughput (MTS) confirmatory dose-response growth assay, T. foetus; type: cell-based, Tritrichomonas foetus; conditions: 96-well, 10,000 cells/mL in 50 μL, 48 h, mean ± SEM, >10 = no appreciable activity at highest dose
Protocol: as §1, §2, §3

[4] = read-out: T.vaginalis_%inb_Rep1
[5] = read-out: T.vaginalis_%inb_Rep2
[6] = HTS, parasite screen at 1 µg/mL

Compound | inhibition of growth at 1 µg/mL [1, 4] [%] | inhibition of growth at 1 µg/mL [1, 5] [%] | T.vaginalis_Absorbance_Rep1 [2, 6] | T.vaginalis_Absorbance_Rep2 [2, 6] | NFF_Activity [3] | also measured
C[C@H]1C(=O)N2c3ccccc3[C@@]3(O)C[C@@H]4C(=O)N[C@](C)(c5nc6ccccc6c(=O)n54)N1[C@@H]23 [Fumiquinazoline D] | 13.7 | 15.9 | 0.964 | 0.84 | I (otherwise these were reported as inactive (I)) | 
CCCCc1ccc(C(=O)O)nc1 [Fusaric acid] | 13.9 | 15.8 | 0.976 | 0.881 | I (otherwise these were reported as inactive (I)) | 
O=c1c(-c2ccc(O)cc2)coc2cc(O)cc(O)c12 [Genistein] | 15.3 | 12.4 | 1.004 | 0.828 | I (otherwise these were reported as inactive (I)) | 
CCCCC[C@@H](O)[C@H]1C(=O)O[C@H](C)[C@@H](O)/C=C/C=C/C=C/C=C/C=C(\C)[C@@H](O)C[C@H](O)C[C@H](O)C[C@H](O)C[C@H](O)C[C@H](O)C[C@@H]1O [Filipin III] | 15.8 | 12.6 | 1.003 | 0.794 | I (otherwise these were reported as inactive (I)) | 
CCC(=C/[C@H](C)C/C=C/C(C)=C/[C@@H](C)C(=O)[C@@H](C)[C@H](O)[C@@H](C)C/C(C)=C/C(=O)O)/C=C/[C@@H]1OC(=O)C=C[C@@H]1C [Leptomycin B, leptomycin B] |  |  |  |  |  | activity against T. vaginalis in MTS, in words (T. vaginalis): no activity; IC50 (T. vaginalis; Trichomonas vaginalis): > 10 µM; IC50 (T. foetus; Tritrichomonas foetus): > 10 µM
COc1cc(C)c(C(=O)Oc2cc(C)c(C(=O)O)c(O)c2)c(O)c1 [Evernic acid] | 11.5 | 11.2 | 0.922 | 0.775 | I (otherwise these were reported as inactive (I)) | 
CC(C=CC(=O)NOC1OC(CO)C(O)C(O)C1O)=CC(C)C(=O)c1ccc(N(C)C)cc1 (centres unmarked) [Trichostatin C, trichostatin C, reference compound] |  |  |  |  |  | T. vaginalis HTS results ([2]; 384-well, 25 μL, 10,000 cells/mL, 10% chromogen, 48 h, single concentration, biological duplicates): I; T.vaginalis_%inb_Rep1 ([2]; HTS, parasite screen at 1 µg/mL, replicate 1): 10.28%; T.vaginalis_%inb_Rep2 ([2]; HTS, parasite screen at 1 µg/mL, replicate 2): 10.24%; activity against T. vaginalis in MTS, in words (T. vaginalis): true negatives; IC50 (T. vaginalis): > 10 µM; IC50 (T. foetus): > 10 µM
COc1cc(C)c(C(=O)Oc2cc(C)c(C(=O)O)c(O)c2C)c(OC)c1C [Diffractaic acid] | 13.8 | 12.3 | 0.965 | 0.79 | I (otherwise these were reported as inactive (I)) | 
C=Cc1cc(OC)c2c(c1)c(=O)oc1c2cc(OC)c2c(O)ccc([C@H]3O[C@H](C)[C@H](O)[C@H](O)[C@H]3O)c21 [Gilvocarcin V] | 4.46 | 4.55 | 0.79 | 0.706 | I (otherwise these were reported as inactive (I)) | 
CSC[S@+]([O-])C[C@H](CO)NC(=O)/C=C/c1c(C)[nH]c(=O)[nH]c1=O [Sparsomycin, sparsomycin] |  |  |  |  |  | activity against T. vaginalis in MTS, in words (T. vaginalis): true positives; IC50 (T. vaginalis; Trichomonas vaginalis): 2.3 µM; species-specificity T. vaginalis vs T. foetus in MTS (T. vaginalis; comparison of MTS IC50 in both species): selective activity against T. vaginalis but not T. foetus; IC50 (T. foetus; Tritrichomonas foetus): > 10 µM
Cc1cc(O)c(C=O)c2c1C(=O)Oc1c(COC(=O)/C=C/C(=O)O)c(O)c(C(=O)O)c(C)c1O2 [Fumarprotocetraric acid] | 13.1 | 15.8 | 0.953 | 0.839 | I (otherwise these were reported as inactive (I)) | 
